The results in this text go back to patent US20240294541A1, “COMPOUNDS CONSTITUTING C20-MODIFIED SALINOMYCIN DERIVATIVES, A METHOD FOR OBTAINING THE SAME, A COMPOSITION CONTAINING THE SAME AND A USE OF SAID COMPOUNDS” (FILECLO SPOLKA Z OGRANICZONA ODPOWIEDZIALNOSCIA, priority 2021, published 2024).

Type in all cases: cell-based
Test [1] deals with A2780Cis (cisplatin-resistant human ovarian cancer). Nature of the test: In vitro cytotoxicity, SRB assay, A2780Cis. Conditions: for IC50: Homo sapiens, A2780cis, read-out: IC50 (nM) A2780Cis. Background: In SRB staining, fixed cells bind dye roughly in proportion to their protein.
The subject of test [2] is BALB/3T3 (normal mouse fibroblasts). In words: In vitro cytotoxicity, SRB assay, normal BALB/3T3 fibroblasts. To be noted: Table 5; BALB/3T3 normal mouse fibroblasts; read-out: IC50 (nM) BALB3T3 normal cells.
Test [3] deals with MV-4-11 (human biphenotypic leukaemia). In words: In vitro cytotoxicity, MTT assay, MV-4-11. To be noted: for IC50: Homo sapiens, MV4-11, read-out: IC50 (nM) MV4-11. (In general: Tetrazolium assays rely on reduction of a dye to a coloured formazan, in cell work by metabolically active cells.)
Another test deals with cancer cells. Nature of the test: In vitro cytotoxic activity on the panel of cancer cell lines (MTT/SRB), general statements. Conditions: Tables 3.1, 3.2, 4 and 5; parent compound salinomycin.

As usually defined, the IC50 is the concentration needed to halve the response being measured.

Where only a bound is given, the exact number is not on record here.

As for `CC[C@@H](C(=O)[C@@H](C)[C@@H](O)[C@H](C)[C@@H]1O[C@@H]([C@@H](CC)C(=O)O)CC[C@@H]1C)[C@H]1O[C@]2(C=C[C@@H](NC(=O)C(C)(C)CCl)[C@]3(CC[C@@](C)([C@H]4CC[C@](O)(CC)[C@H](C)O4)O3)O2)[C@H](C)C[C@@H]1C` [FLC-00473-1•Na], the “SI A2780Cis” value in test [1] is recorded as 179.1. The IC50 in test [1] was determined as 0.72 nM; in test [2], 129 nM; in test [3], 2.05 nM. Besides, the “SI MV4-11” value in test [3] came to 62.7. Besides, the “anti-proliferative effect compared to that of the parent compound” value with cancer cells is recorded as “several times more potent compared to that of the parent compound”.

For the molecule `CC[C@@H](C(=O)[C@@H](C)[C@@H](O)[C@H](C)[C@@H]1O[C@@H]([C@@H](CC)C(=O)O)CC[C@@H]1C)[C@H]1O[C@]2(C=C[C@@H](NC(=O)C(=O)NCc3ccccc3OC)[C@]3(CC[C@@](C)([C@H]4CC[C@](O)(CC)[C@H](C)O4)O3)O2)[C@H](C)C[C@@H]1C` [FLC-00491-1•Na], in test [1], the “SI A2780Cis” value came to 79.2 and the IC50 is 5.19 nM. The IC50 in test [2] was determined as 411 nM. In test [3], the “SI MV4-11” value is given as 65.3 and the IC50 came to 6.3 nM. Besides, the “anti-proliferative effect compared to that of the parent compound” value in the test with cancer cells is on record as “several times more potent compared to that of the parent compound”.

As for `CC[C@@H](C(=O)[C@@H](C)[C@@H](O)[C@H](C)[C@@H]1O[C@@H]([C@@H](CC)C(=O)O)CC[C@@H]1C)[C@H]1O[C@]2(C=C[C@@H](NS(=O)(=O)c3c(C)noc3C)[C@]3(CC[C@@](C)([C@H]4CC[C@](O)(CC)[C@H](C)O4)O3)O2)[C@H](C)C[C@@H]1C` [FLC-00506-1•Na], the “SI A2780Cis” value in test [1] stood at 100.3. Moreover, the IC50 was determined as 0.92 nM in test [1], 92.5 nM in test [2] and 2.62 nM in test [3]. Moreover, the “SI MV4-11” value in test [3] was found to be 35.3. Further, the “anti-proliferative effect compared to that of the parent compound” value with cancer cells is listed as “several times more potent compared to that of the parent compound”.

For the molecule `CC[C@@H](C(=O)[C@@H](C)[C@@H](O)[C@H](C)[C@@H]1O[C@@H]([C@@H](CC)C(=O)O)CC[C@@H]1C)[C@H]1O[C@]2(C=C[C@@H](NC(=O)NC(C)(C)C)[C@]3(CC[C@@](C)([C@H]4CC[C@](O)(CC)[C@H](C)O4)O3)O2)[C@H](C)C[C@@H]1C` [FLC-00593-1•Na], the “SI A2780Cis” value in test [1] was “≈7220”. Further, the IC50 was less than 0.01 nM in test [1], 72.2 nM in test [2] and less than 0.01 nM in test [3]. The “SI MV4-11” value in test [3] was “≈7220”. Also, the “anti-proliferative effect compared to that of the parent compound” value in the test on cancer cells is reported as “several times more potent compared to that of the parent compound”.

As for `CC[C@@H](C(=O)[C@@H](C)[C@@H](O)[C@H](C)[C@@H]1O[C@@H]([C@@H](CC)C(=O)O)CC[C@@H]1C)[C@H]1O[C@]2(C=C[C@@H](NC(=O)N[C@@H](C)C(C)(C)C)[C@]3(CC[C@@](C)([C@H]4CC[C@](O)(CC)[C@H](C)O4)O3)O2)[C@H](C)C[C@@H]1C` [FLC-00606-1•Na], in test [1], the “SI A2780Cis” value was “≈5240” and the IC50 is less than 0.01 nM. For the same molecule, in test [2], the half-inhibitory concentration (IC50) is 52.4 nM. Further, in test [3], the “SI MV4-11” value is given as “≈5240” and the IC50 was less than 0.01 nM. In addition, the “anti-proliferative effect compared to that of the parent compound” value in the test on cancer cells was “several times more potent compared to that of the parent compound”.

With `CCC(CC)NC(=S)N[C@@H]1C=C[C@]2(O[C@H]([C@@H](CC)C(=O)[C@@H](C)[C@@H](O)[C@H](C)[C@@H]3O[C@@H]([C@@H](CC)C(=O)O)CC[C@@H]3C)[C@@H](C)C[C@H]2C)O[C@@]12CC[C@@](C)([C@H]1CC[C@](O)(CC)[C@H](C)O1)O2` [FLC-00771-1•Na], in test [1], the “SI A2780Cis” value is recorded as “≈8000” and the 50% inhibitory concentration (IC50) is less than 0.01 nM. For the same molecule, in test [2], the IC50 worked out at 80 nM. Further, in test [3], the “SI MV4-11” value is “≈8000” and the 50% inhibitory concentration (IC50) is less than 0.01 nM. In addition, the “anti-proliferative effect compared to that of the parent compound” value in the test with cancer cells was “several times more potent compared to that of the parent compound”.
